# Measurements published in publication PMC4639751, “Development of 1-N-^11C-Methyl-L- and -D-Tryptophan for pharmacokinetic imaging of the immune checkpoint inhibitor 1-Methyl-Tryptophan” (Scientific Reports, 2015).
# Tests used:
# [1] = Ex vivo metabolite studies; type: in vivo; conditions: SD rats; for Ex vivo metabolite analysis, % of tailored L- and D-1MTrp entity in Brain / Ex vivo metabolite analysis, % of tailored L- and D-1MTrp entity in Pancreas / Ex vivo metabolite analysis, % of tailored L- and D-1MTrp entity in Plasma: HPLC, mean ± SEM, n = 4
# Procedure: To validate the derivation of radioactivity into the relevant organs and tissues, we assessed the metabolites of both radiolabelled isomers in the blood, brain, and pancreas of rats. […] Few radioactive metabolites were detected in these three tissues at 15 and 60 min after ^11C-L-1MTrp and ^11C-D-1MTrp injection.
# SD rats were injected with ^11C-L-1MTrp or ^11C-D-1MTrp (70–74 MBq, 0.4–0.6 nmol) via a lateral tail vein. The animals were sacrificed by cervical dislocation at 15 and 60 min after the injection. Blood was collected and centrifuged at 15000 rpm for 2 min at 4 °C to separate the plasma. Brain and pancreas were rapidly removed, then homogenized in equal volumes of 1 M HClO4 solution with a Silent Crusher S homogenizer (Heidolph Instruments). Plasma and homogenates of brain and pancreas from rats were deproteinized and then analyzed by HPLC as described in the stability assay in vitro.
# [2] = In vitro stability assay in rat plasma; type: in vitro ADME; conditions: 37 °C, 90 min incubation, HPLC analysis
# Procedure: To determine the in vitro property of the two newly-developed radioprobes, we performed plasma stability studies by HPLC analysis at 37 °C for 90 min. […] More than 95% of ^11C-L-1Mtrp and ^11C-D-1Mtrp remained intact and no detectable metabolites were found at least 90 min after plasma incubation in vitro.
# ^11C-L-1MTrp and ^11C-D-1MTrp (70–74 MBq, 0.4−0.6 nmol) was dissolved in 2 mL of freshly isolated rat plasma and incubated at 37 °C for 90 min. After 0, 30, 60 and 90 min, an aliquot of 300 μL incubated mixture was taken, proteins in plasma were precipitated with equal volumes of 1 M HClO4 solution, followed by centrifugation at 15000 rpm for 2 min at 4 °C. The supernatant was collected and analyzed by HPLC (Capcell Pack UG80 column, 4.6 mm i.d. × 250 mm) with […] phosphate buffer/CH3CN (8.5/1.5, v/v) at a flow rate of 1 mL/min.
# [3] = Ex vivo biodistribution studies; conditions: SD rats, mean ± SEM, n = 4
# Description: Major organs and tissues (blood, heart, lung, liver, pancreas, spleen, kidney, intestine, muscle, and brain), were promptly excised, harvested, and weighed. Radioactivity was counted using a γ-counter and expressed as a percentage of the injected dose per gram of wet tissue (%ID/g). All radioactivity measurements were corrected for decay.
# [4] = PET, rats, 60 min after injection
# Procedure: Emission scans were acquired in three-dimensional list mode with an energy window of 350–650 keV under isoflurane anesthesia, from 0 to 60 min after radioprobe administration. All list-mode acquisition data were sorted into three-dimensional sinograms, which were then Fourier-rebinned into two-dimensional sonograms (frames × min: 4 × 1, 8 × 2, 8 × 5), and corrections for scanner dead time, randoms, and decay of the injected radioprobe. Dynamic images were reconstructed with filtered back-projection using a Hanning filter and a Nyquist cut-off of 0.5 cycles/pixel. Immediately after completion of PET scans, contrast-enhanced CT scans were performed in the rats by using the small-animal CT system (R_mCT2; Rigaku, Tokyo) after injection of 1 mL of non-ionic contrast medium (Iopamiron 370, Bayer, Osaka). The scan conditions included radiation parameters of 200 μA and 90 kV, FOV of 60 mm, and acquisition time of 34 s. CT images were collected, reconstructed, and observed using I-View-R software (Rigaku, The Woodlands, TX). Averaged CT attenuation images and dynamic PET images were reconstructed and fused using the Siemens Inveon Research Workplace (IRW) 4.0 software.
# Regions of interest (ROI) in major organs and tissues were drawn in the PET/CT fusion images by manual outlining the organs and tissues in the CT images throughout the image slices by using IRW 4.0 software. The average radioactivity concentration was obtained from mean pixel values in the ROI volume. Regional uptake of radioactivity was decay-corrected to the injection time and expressed as the standardized uptake value (SUV), normalized for injected radioactivity and body weight. SUV was calculated as SUV = (radioactivity per cubic centimeter tissue/injected radioactivity) × body weight in grams. TACs of the radioprobes in individual organ and tissue were determined. Values of area under time-activity curves (AUC2–60 min, SUV × min) were calculated from 2 to 60 min post-injection to minimize the early perfusion effects.
smiles,measurement,setting,value
"[11CH3]n1cc(C[C@H](N)C(=O)O)c2ccccc21 [^11C-L-1MTrp, 1-N-^11C-methyl-L-tryptophan]","Radioactivity in the brain, pancreas, and blood associated with L- and D-1MTrp",[1]; 15 and 60 min after injection,more than 94%
same,"Ex vivo metabolite analysis, % of tailored L- and D-1MTrp entity in Brain",[1]; 15 min after injection,98.38 ± 0.34%
same,"Ex vivo metabolite analysis, % of tailored L- and D-1MTrp entity in Pancreas",[1]; 15 min after injection,94.73 ± 1.64%
same,"Ex vivo metabolite analysis, % of tailored L- and D-1MTrp entity in Plasma",[1]; 15 min after injection,97.67 ± 0.18%
same,"Ex vivo metabolite analysis, % of tailored L- and D-1MTrp entity in Brain",[1]; 60 min after injection,98.93 ± 0.51%
same,"Ex vivo metabolite analysis, % of tailored L- and D-1MTrp entity in Pancreas",[1]; 60 min after injection,95.88 ± 0.64%
same,"Ex vivo metabolite analysis, % of tailored L- and D-1MTrp entity in Plasma",[1]; 60 min after injection,98.44 ± 0.13%
same,Fraction remaining intact in rat plasma,[2],More than 95%
same,"Biodistribution, radioactivity in Blood",[3]; 1 min after injection,1.34 ± 0.03 %ID/g tissue
same,"Biodistribution, radioactivity in Brain",[3]; 1 min after injection,0.14 ± 0.00 %ID/g tissue
same,"Biodistribution, radioactivity in Heart",[3]; 1 min after injection,1.13 ± 0.01 %ID/g tissue
same,"Biodistribution, radioactivity in Intestine",[3]; 1 min after injection,1.27 ± 0.05 %ID/g tissue
same,"Biodistribution, radioactivity in Kidney",[3]; 1 min after injection,2.60 ± 0.02 %ID/g tissue
same,"Biodistribution, radioactivity in Liver",[3]; 1 min after injection,1.51 ± 0.03 %ID/g tissue
same,"Biodistribution, radioactivity in Lung",[3]; 1 min after injection,0.98 ± 0.02 %ID/g tissue
same,"Biodistribution, radioactivity in Muscle",[3]; 1 min after injection,0.18 ± 0.02 %ID/g tissue
same,"Biodistribution, radioactivity in Pancreas",[3]; 1 min after injection,2.95 ± 0.23 %ID/g tissue
same,"Biodistribution, radioactivity in Spleen",[3]; 1 min after injection,0.98 ± 0.05 %ID/g tissue
same,"Biodistribution, radioactivity in Blood",[3]; 5 min after injection,0.65 ± 0.01 %ID/g tissue
same,"Biodistribution, radioactivity in Brain",[3]; 5 min after injection,0.20 ± 0.01 %ID/g tissue
same,"Biodistribution, radioactivity in Heart",[3]; 5 min after injection,0.64 ± 0.01 %ID/g tissue
same,"Biodistribution, radioactivity in Intestine",[3]; 5 min after injection,0.68 ± 0.01 %ID/g tissue
same,"Biodistribution, radioactivity in Kidney",[3]; 5 min after injection,1.64 ± 0.03 %ID/g tissue
same,"Biodistribution, radioactivity in Liver",[3]; 5 min after injection,0.73 ± 0.01 %ID/g tissue
same,"Biodistribution, radioactivity in Lung",[3]; 5 min after injection,0.62 ± 0.01 %ID/g tissue
same,"Biodistribution, radioactivity in Muscle",[3]; 5 min after injection,0.46 ± 0.01 %ID/g tissue
same,"Biodistribution, radioactivity in Spleen",[3]; 5 min after injection,0.61 ± 0.00 %ID/g tissue
same,"Biodistribution, radioactivity in Blood",[3]; 15 min after injection,0.54 ± 0.02 %ID/g tissue
same,"Biodistribution, radioactivity in Brain",[3]; 15 min after injection,0.27 ± 0.02 %ID/g tissue
same,"Biodistribution, radioactivity in Heart",[3]; 15 min after injection,0.54 ± 0.02 %ID/g tissue
same,"Biodistribution, radioactivity in Intestine",[3]; 15 min after injection,0.53 ± 0.02 %ID/g tissue
same,"Biodistribution, radioactivity in Kidney",[3]; 15 min after injection,1.11 ± 0.06 %ID/g tissue
same,"Biodistribution, radioactivity in Liver",[3]; 15 min after injection,0.61 ± 0.03 %ID/g tissue
same,"Biodistribution, radioactivity in Lung",[3]; 15 min after injection,0.50 ± 0.02 %ID/g tissue
same,"Biodistribution, radioactivity in Muscle",[3]; 15 min after injection,0.46 ± 0.02 %ID/g tissue
same,"Biodistribution, radioactivity in Pancreas",[3]; 15 min after injection,2.65 ± 0.16 %ID/g tissue
same,"Biodistribution, radioactivity in Spleen",[3]; 15 min after injection,0.55 ± 0.02 %ID/g tissue
same,"Biodistribution, radioactivity in Blood",[3]; 30 min after injection,0.50 ± 0.01 %ID/g tissue
same,"Biodistribution, radioactivity in Brain",[3]; 30 min after injection,0.30 ± 0.02 %ID/g tissue
same,"Biodistribution, radioactivity in Heart",[3]; 30 min after injection,0.49 ± 0.01 %ID/g tissue
same,"Biodistribution, radioactivity in Intestine",[3]; 30 min after injection,0.51 ± 0.00 %ID/g tissue
same,"Biodistribution, radioactivity in Kidney",[3]; 30 min after injection,0.86 ± 0.03 %ID/g tissue
same,"Biodistribution, radioactivity in Liver",[3]; 30 min after injection,0.55 ± 0.01 %ID/g tissue
same,"Biodistribution, radioactivity in Lung",[3]; 30 min after injection,0.45 ± 0.01 %ID/g tissue
same,"Biodistribution, radioactivity in Muscle",[3]; 30 min after injection,0.45 ± 0.01 %ID/g tissue
same,"Biodistribution, radioactivity in Pancreas",[3]; 30 min after injection,2.70 ± 0.17 %ID/g tissue
same,"Biodistribution, radioactivity in Spleen",[3]; 30 min after injection,0.51 ± 0.01 %ID/g tissue
same,"Biodistribution, radioactivity in Blood",[3]; 60 min after injection,0.50 ± 0.02 %ID/g tissue
same,"Biodistribution, radioactivity in Brain",[3]; 60 min after injection,0.31 ± 0.01 %ID/g tissue
same,"Biodistribution, radioactivity in Heart",[3]; 60 min after injection,0.47 ± 0.02 %ID/g tissue
same,"Biodistribution, radioactivity in Intestine",[3]; 60 min after injection,0.46 ± 0.02 %ID/g tissue
same,"Biodistribution, radioactivity in Kidney",[3]; 60 min after injection,0.74 ± 0.04 %ID/g tissue
same,"Biodistribution, radioactivity in Liver",[3]; 60 min after injection,0.54 ± 0.02 %ID/g tissue
same,"Biodistribution, radioactivity in Lung",[3]; 60 min after injection,0.43 ± 0.02 %ID/g tissue
same,"Biodistribution, radioactivity in Muscle",[3]; 60 min after injection,0.45 ± 0.02 %ID/g tissue
same,"Biodistribution, radioactivity in Pancreas",[3]; 60 min after injection,2.27 ± 0.05 %ID/g tissue
same,"Biodistribution, radioactivity in Spleen",[3]; 60 min after injection,0.48 ± 0.01 %ID/g tissue
same,SUV in the kidney,"[4]; mean ± SEM, four rats",0.94 ± 0.03
same,SUV in the pancreas,"[4]; mean ± SEM, four rats",2.28 ± 0.28
same,"SUV in the liver, spleen, heart, blood, muscle, lung, brain and intestine",[4]; span over these organs,0.43 ~ 0.70
"Cn1cc(C[C@H](N)C(=O)O)c2ccccc21 [L-1MTrp, 1-Methyl-L-tryptophan, reference compound]","Biodistribution, radioactivity in Pancreas",[3]; 60 min after injection,2.27 %ID/g tissue
same,SUV in the pancreas,"[4]; mean ± SEM, four rats",2.28
